“Also recorded” adds a separate entry of the source. Residues, ends and D or L forms follow the SMILES beside them. *: point of attachment. Cbz = O=C(OCc1ccccc1)*
How the values were obtained:
eDHFR-HA-GST-α1 = biological target: T1, eDHFR-HA-GST-α1 (UniProt P08263+P0ABQ4); assay: Degradation of eDHFR-HA-GST-α1 ectopically expressed in HeLa cells; type: cell-based; conditions: for Degradation of eDHFR-HA-GST-α1: cycloheximide treated HeLa cells
T1 construct: expressed in transfected cells; host or cells: HeLa cells
T1 sequence (P0ABQ4+P08263 with tags, fused parts or gaps): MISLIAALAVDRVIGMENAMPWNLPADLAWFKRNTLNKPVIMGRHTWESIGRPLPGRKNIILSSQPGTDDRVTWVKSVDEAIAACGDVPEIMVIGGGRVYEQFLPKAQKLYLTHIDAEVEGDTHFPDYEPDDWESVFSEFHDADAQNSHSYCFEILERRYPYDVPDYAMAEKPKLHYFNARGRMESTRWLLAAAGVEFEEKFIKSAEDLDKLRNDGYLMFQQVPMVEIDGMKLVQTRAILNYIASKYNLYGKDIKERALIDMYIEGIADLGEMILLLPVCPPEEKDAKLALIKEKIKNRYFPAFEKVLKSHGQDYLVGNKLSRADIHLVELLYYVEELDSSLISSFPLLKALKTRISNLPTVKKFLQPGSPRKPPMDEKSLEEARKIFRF
Text: FIG. 5 depicts degradation of GST-α1-HA in HeLa cell lysates and eDHFR-HA-GST in HeLa cells.

endogenous GST-π = assay: Degradation of endogenous GST-π in whole cells (immunoblot); type: cell-based; conditions: two hours
Method: FIG. 12 depicts degradation of endogenous GST-π. Cells were incubated with EA-Boc3Arg for 2 hours. Degradation was monitored by immuno-blotting with anti-GST antibodies. EA=right bar; EA-Boc3-Arg=left bar.
The ability of EA-Boc3Arg to degrade endogenous GST-π in the context of whole cells was also investigated. […] The Boc3Arg moiety can regulate endogenous protein levels in vivo.

[1] = biological target: T2, human glutathione-S-transferase α-1 (Homo sapiens, UniProt P08263); assay: Degradation of pre-inhibited GST-α-1 in cell lysates (Western blot); type: biochemical; conditions: for Degradation of GST-α-1 in cell lysates: protein pre-treated with inhibitor, lysates from reticulocytes, HeLa, Cos and NIH 3T3 cells
T2 construct: HA (N); made in house; host or cells: Escherichia coli (pOXO4-α1 vector)
T2 sequence (P08263 1-222): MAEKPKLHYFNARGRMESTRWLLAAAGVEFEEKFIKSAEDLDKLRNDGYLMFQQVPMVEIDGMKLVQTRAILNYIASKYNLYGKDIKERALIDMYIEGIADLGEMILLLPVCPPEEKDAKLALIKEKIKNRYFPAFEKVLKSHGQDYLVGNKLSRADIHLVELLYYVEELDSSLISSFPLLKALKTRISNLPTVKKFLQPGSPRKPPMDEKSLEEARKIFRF
Method: The gel was transferred onto a polyvinyldifluoride membrane in Towbin (3 g Tris/14.4 g glycine) buffer, 100V for 1.2 hours then 40V for 3 hours for 18% gels, and 100 V for 1.2 hours for 12% gels. The membrane was blocked with 3% non-fat milk in Tris buffered saline (100 mM Tris base, 500 mM NaCl, pH 7.6) for one hour, then directly added to a solution of anti HA-HRP conjugated antibody in 0.5% non-fat milk in Tris buffered saline with 0.05% tween-20 for 2 hours. Membrane was washed twice with Tris buffered saline with 0.05% Tween 20 for 10 minutes, then washed once with Tris buffered saline for 15 minutes. The residual buffer was removed then exposed to ECL Plus™ (GE healthcare) for 5 minutes. Membrane was visualized by exposure to film (HyBlot CL, Denville Scientific). For in cell degradation assays, the membrane was cut in half (at approximately 40 kiloDaltons) and the lower molecular weight portion was probed and visualized with anti-GAPDH-HRP, protocol same as for anti-HA except Tris buffered saline contained 150 mM NaCl, not 500 mM. The higher molecular weight portion of the membrane was probed and visualized with anti-HA-HRP.
Human glutathione-S-transferase α-1 bearing an N-terminal HA tag was recombinantly expressed in Escherichia coli using the pOXO4-α1 vector. This was purified using glutathione affinity chromatography (GST-Bind™, Novagen). Escherichia coli dihydrofolate reductase bearing an N-terminal (His)6 tag and a C-terminal HA tag was recombinantly expressed in Escherichia coli using a pET28a vector. This was purified using Ni-NTA resin (Qiagen).
The cells were then serum starved for 2 days in the case of Cos and HeLa cells and 1 day in the case of NIH3T3 cells. The cells were washed with phosphate buffered saline and then trypsinized. Cells were collected, and an equal volume of complete medium was added. Cells were pelleted by centrifugation and the supernatant was aspirated. The cell pellet was washed three times with phosphate buffered saline. Cell pellets were stored at −80° C. until required. Cells were thawed on ice and maintained at 4° C. until required for the assay. […] The cells were lysed in a Dounce homogenizer (10 strokes), and then centrifuged at 14000 rpm for 30 minutes. The clarified lysate was normalized to an optimized concentration of 1 mg/mL (Bradford assay, Biorad®, as per manufacturer's instructions, using immunoglobulin as a standard) with lysis buffer. A 10×ATP regeneration buffer was made consisting of the following 1 mg/mL creatine kinase (Roche Diagnostics®), 600 mM creatine phosphate, 100 mM ATP, 200 mM Tris pH 8.0, 600 mM MgCl2. This was incubated at 37° C. for 30 minutes prior to use. Assays were conducted in […] total volume [including 1×ATP regeneration buffer, and 120 ng of HA-tagged protein (1 μL) preinhibited with 100 μM ethacrynic acid-derived inhibitor, or 1 μM trimethoprim-derived inhibitor] in 250 μL PCR tubes. Prior to assay 50 μL Chill Out wax (Biorad®) was overlaid on the top of the vial. 15 μL aliquots were extracted and diluted into 6 μL of 5× reducing SDS PAGE loading buffer and immediately frozen by being placed into dry ice. These were stored at −80° C. until required. Samples were thawed at 100° C. and continued to be boiled for 5 minutes. The samples were then centrifuged at 14,000 rpm on a microcentrifuge for 30 minutes and loaded onto an 18% polyacrylamide SDS PAGE gel, and Western blotted as per Example 2.

proteasome = assay: Effect of proteasome inhibitors on Boc3Arg-induced degradation (lysates and whole HeLa cells); conditions: GST-α-1 in cell lysates; eDHFR fusion proteins in HeLa cells
eDHFR-HA-GFP = eDHFR-HA-GFP (Escherichia coli, UniProt P0ABQ4); conditions: transfected HeLa cells
Method: FIG. 6 depicts degradation of eDHFR-HA in cell lysates and degradation of eDHFR fusion proteins in HeLa cells. (A) Degradation of eDHFR in HeLa cells lysates; (B) quantification of panel (A); (C) Global protein stability (GPS) assay. Cells co-express red fluorescent protein (RFP) and DHFR-HA-GFP from a bicistronic construct. Red and green fluorescence was measured by flow cytometry.
Protein degradation in whole cells was also assessed. eDHFR-HA-GFP was co-expressed with Discosoma sp. red fluorescent protein (RFP) in a bicistronic construct under control of a CMV promoter, with DHFR-HA-GFP translation occurring at the internal ribosome binding site. Thus a single mRNA is responsible for the production of both RFP and DHFR-HA-GFP, so that similar ratios of both proteins should be produced in all transfected cells. Changes in the relative intensities of red and green fluorescence are measured by flow cytometry, providing a facile and quantitative measure of the degradation of DHFR-HA-GFP in living cells and real time.
Cells were grown to 90% confluence in Dulbecco's Modified Minimal Essential Medium supplemented with 10% fetal bovine serum, 1×L-glutamine with no antibiotic in a 6 well plate. At this point the cells were serum starved, and then transfected using […] plasmid (expression driven by the cytomegalovirus promoter; gene coding for enhanced green fluorescent protein fused to the C-terminus of E. coli dihydrofolate reductase): 2 μL Transfectin™ (Biorad) per well. 48 hours after transfection, media was once again aspirated, and fresh serum free media was added. Cycloheximide (final concentration 100 μg/mL) was then added to the cells and after 5 minutes, 30 μM inhibitor was added. At each time point (45 minutes), media was aspirated, cells were trypsinized, centrifuged and washed three times with phosphate buffered saline. Cell pellets were flash frozen in dry ice, and then stored indefinitely at −80° C. The cells were thawed on ice, and then resuspended in lysis buffer (150 mM sucrose, 200 mM sodium phosphate, 43 mM MgCl2, pH 7.8, 0.1% triton X-100). Cells were lysed by two freeze/thaw cycles (−80° C. for 5 minutes, then 4° C. for 10 minutes). Lysate concentrations were normalized by dilution with lysis buffer such that they gave the same A595 when diluted into Bradford assay dye (Biorad).

SMILES: C=C(CC)C(=O)c1ccc(OCC(=O)NCCCCCCNC(=O)C(CCCNC(=NC(=O)OC(C)(C)C)NC(=O)OC(C)(C)C)NC(=O)OC(C)(C)C)c(Cl)c1Cl (centres unmarked) [EA-Boc3Arg, N-(6-(2-(2,3-Dichloro-4-(2-methylenebutanoyl)phenoxy)acetamido)hexyl)-5-(2,3-di-t-butoxycarbonylguanidino)-2-(t-butoxycarbonylamino)pentanamide]
- Degradation of eDHFR-HA-GST-α1 (eDHFR-HA-GST-α1): can cause degradation
- depletion in the GST-π signal (endogenous GST-π): 30%
- Degradation of GST-α-1 in cell lysates [1]: Degradation was observed
- Degradation of GST-α-1 in cell lysates ([1]; listed as 1): promotes the degradation

SMILES: C=C(CC)C(=O)c1ccc(OCC(=O)NCCCCCCNC(=O)C(CCCNC(=N)NS(=O)(=O)c2ccc(C)cc2)NOC(=O)Cc2ccccc2)c(Cl)c1Cl (centres unmarked) [Compound 2, N-(6-(2-(2,3-Dichloro-4-(2-methylenebutanoyl)phenoxy)acetamido)hexyl)-2-(benzylcarbonyloxyamino)-5-(3-tosylguanidino)pentanamide]
- Degradation of GST-α-1 in cell lysates [1]: functional degradation tag

SMILES: CC(=O)N[C@@H](CSC(=O)[C@]1([C@@H](O)C(C)C)NC(=O)[C@H](C)[C@@H]1O)C(=O)O [lactacystin]
- Effect on Boc3Arg-induced degradation (proteasome): block

SMILES: CC(C)C[C@@H](C=O)NC(=O)[C@H](CC(C)C)NC(=O)[C@H](CC(C)C)NC(=O)OCc1ccccc1 [MG 132] (Cbz-Leu-Leu-Leu-aldehyde)
- Effect on Boc3Arg-induced degradation (proteasome): block; also recorded: prevent degradation

SMILES: C=C(CC)C(=O)c1ccc(OCC(=O)O)c(Cl)c1Cl [EA, ethacrynic acid, reference compound]
- Degradation of eDHFR-HA-GST-α1 (eDHFR-HA-GST-α1): does not
- Degradation of GST-α-1 in cell lysates [1]: No degradation was observed

SMILES: CC(C)C[C@H](NC(=O)[C@H](Cc1ccccc1)NC(=O)c1cnccn1)B(O)O [bortezomib]
- Effect on degradation of eDHFR-HA-GST-α1 by EA-Boc3Arg (eDHFR-HA-GST-α1; cycloheximide and non-cycloheximide treated HeLa cells): retards degradation
- Effect on Boc3Arg-induced degradation (proteasome): block; also recorded: prevent degradation
- Effect on degradation of eDHFR-HA-GFP (eDHFR-HA-GFP): slower

SMILES: Cc1cc(C(=O)CN2CCCC2)c(C)n1-c1ccc(F)cc1 [PU1, reference compound]
- Effect on degradation of eDHFR-HA-GFP (eDHFR-HA-GFP): slower

SMILES: CC(C)(C)OC(=O)N=C(NCCCC(NC(=O)OC(C)(C)C)C(=O)NCCCCCCSc1ccc([N+](=O)[O-])c2nonc12)NC(=O)OC(C)(C)C (centres unmarked) [Fur-Boc3Arg, 5-(2,3-Di-tert-butoxycarbonylguanidino)-2-(tert-butoxycarbonylamino)-N-(6-(7-nitrobenzo[c][1,2,5]oxadiazol-4-ylthio)hexyl)pentan amide]
- Degradation of Fur-Boc3Arg-modified GST-α-1 ([1]; NIH 3T3 cell lysates): readily degraded; also recorded: induces the degradation
